Measurements reported in patent publication US8710233B2 (Gruenenthal GmbH, priority 2005, dated 2014).
Where two headings read alike, the source gives them in different places.

What was measured:
Assay type in all cases: cell-based
[1] = biological target: T1, vanilloid receptor 1 (VR1/TRPV1) of the rat species (Rattus norvegicus, UniProt O35433); experiment: FLIPR Ca2+ influx assay on rat dorsal root ganglia cells (pharmacological method I)
T1 construct: The spinal column is removed from decapitated rats; from tissue; host or cells: primary cells dissociated from rat dorsal root ganglia
T1 sequence (O35433 whole entry): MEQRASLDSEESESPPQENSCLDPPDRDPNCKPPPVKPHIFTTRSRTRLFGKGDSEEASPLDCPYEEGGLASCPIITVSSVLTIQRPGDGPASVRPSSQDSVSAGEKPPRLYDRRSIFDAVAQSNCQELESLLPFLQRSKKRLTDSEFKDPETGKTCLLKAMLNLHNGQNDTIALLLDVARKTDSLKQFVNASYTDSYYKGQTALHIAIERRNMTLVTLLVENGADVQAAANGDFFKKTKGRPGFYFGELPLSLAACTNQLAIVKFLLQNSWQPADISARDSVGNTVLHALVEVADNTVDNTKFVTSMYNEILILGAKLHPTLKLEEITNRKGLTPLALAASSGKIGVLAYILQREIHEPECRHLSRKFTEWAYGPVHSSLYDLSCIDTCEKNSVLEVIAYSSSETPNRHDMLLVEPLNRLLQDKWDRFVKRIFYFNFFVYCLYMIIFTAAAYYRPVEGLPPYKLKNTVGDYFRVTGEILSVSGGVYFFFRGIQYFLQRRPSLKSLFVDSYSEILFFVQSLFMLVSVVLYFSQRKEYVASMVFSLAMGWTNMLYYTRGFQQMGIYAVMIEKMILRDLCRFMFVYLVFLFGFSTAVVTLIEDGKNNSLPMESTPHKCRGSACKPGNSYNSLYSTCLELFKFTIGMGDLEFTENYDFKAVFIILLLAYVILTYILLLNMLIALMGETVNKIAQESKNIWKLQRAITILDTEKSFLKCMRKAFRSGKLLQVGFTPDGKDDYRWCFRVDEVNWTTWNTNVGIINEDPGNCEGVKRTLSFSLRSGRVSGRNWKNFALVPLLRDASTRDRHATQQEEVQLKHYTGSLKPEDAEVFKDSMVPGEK
Description: I. Functional Investigation of the Vanilloid Receptor 1 (VR1/TRPV1 Receptor)
The agonistic or antagonistic action of the substances to be investigated on the vanilloid receptor 1 (VR1/TRPV1) of the rat species may be determined by the following assay. According to this assay, the influx of Ca^2+ through the receptor channel is quantified with the assistance of a Ca^2+-sensitive dye (type Fluo-4, Molecular Probes Europe BV, Leiden, Netherlands) in a Fluorescent Imaging Plate Reader (FLIPR, Molecular Devices, Sunnyvale, USA).
The spinal column is removed from decapitated rats and is placed directly in cold, i.e. located in an ice bath, HBSS buffer (Hank's buffered saline solution, Gibco Invitrogen GmbH, Karlsruhe, Germany) combined with 1 vol. % (percent by volume) of an AA solution (antibiotic/antimycotic solution, PAA, Pasching, Austria). The spinal column is cut open longitudinally and removed together with fasciae from the spinal canal. The dorsal root ganglia (DRGs) are then removed and in turn stored in cold HBSS buffer combined with 1 vol. % of an AA solution. The DRGs, from which all traces of blood and spinal nerves have been removed, are in each case transferred into 500 μL of cold collagenase type 2 (PAA, Pasching, Austria) and incubated for 35 minutes at 37° C. […] Once incubation is complete, the enzyme solution is carefully removed by pipette and the DRGs, which are left behind, are in each case combined with 500 μL of complete medium.
The DRGs are in each case repeatedly suspended, drawn by means of a syringe through […], no. 12 and no. 16 cannulas and transferred into 50 mL Falcon microtubes and each tube is made up to 15 mL with complete medium. The contents of each Falcon microtube are in each case filtered through a 70 μm Falcon filter insert and centrifuged for 10 minutes at 1200 revolutions and room temperature. The resultant pellet is in each case resuspended in 250 μL of complete medium and the cell count determined.
The number of cells in the suspension is adjusted to 3×10^5 per mL and a 150 μL portion of this suspension is in each case placed in a well of the cell culture plate which has been coated as described above.
The cells are then loaded with 2 μM Fluo-4 and 0.01 vol. % Pluronic F127 (Molecular Probes Europe BV, Leiden, Netherlands) in HBSS buffer (Hank's buffered saline solution, Gibco Invitrogen GmbH, Karlsruhe, Germany) for 30 min at 37° C., washed 3× with HBSS buffer and, after a further 15 minutes' incubation at room temperature, used for Ca^2+ measurement in the FLIPR assay. […] Quantification proceeds by measuring the highest fluorescence intensity (FC, fluorescence counts) over time.
The FLIPR protocol comprises 2 additions of substance. The compounds to be tested (10 μM) are firstly pipetted onto the cells and Ca^2+ influx is compared with the control (capsaicin 10 μM). This provides the percentage activation relative to the Ca^2+ signal after addition of 10 μM of capsaicin (CP). After 5 minutes' incubation, 100 nM of capsaicin are added and the influx of Ca^2+ is again determined.
Desensitising agonists and antagonists result in suppression of Ca^2+ influx. The percentage inhibition in comparison with the maximum achievable inhibition with 10 μM capsaicin is calculated.
Triplicate determinations (n═3) are performed and these are repeated in at least 3 independent experiments […].

[2] = biological target: VR1/TRPV1 receptor (Homo sapiens, UniProt Q8NER1); experiment: IC50 (human) after pH stimulus; conditions: for IC50: table 4; for inhibition at 5 µM / inhibition at 10 µM: read-out: inhibition in percent, IC50 (human) after pH stimulus
Chain of VR1/TRPV1 receptor (Q8NER1 whole entry): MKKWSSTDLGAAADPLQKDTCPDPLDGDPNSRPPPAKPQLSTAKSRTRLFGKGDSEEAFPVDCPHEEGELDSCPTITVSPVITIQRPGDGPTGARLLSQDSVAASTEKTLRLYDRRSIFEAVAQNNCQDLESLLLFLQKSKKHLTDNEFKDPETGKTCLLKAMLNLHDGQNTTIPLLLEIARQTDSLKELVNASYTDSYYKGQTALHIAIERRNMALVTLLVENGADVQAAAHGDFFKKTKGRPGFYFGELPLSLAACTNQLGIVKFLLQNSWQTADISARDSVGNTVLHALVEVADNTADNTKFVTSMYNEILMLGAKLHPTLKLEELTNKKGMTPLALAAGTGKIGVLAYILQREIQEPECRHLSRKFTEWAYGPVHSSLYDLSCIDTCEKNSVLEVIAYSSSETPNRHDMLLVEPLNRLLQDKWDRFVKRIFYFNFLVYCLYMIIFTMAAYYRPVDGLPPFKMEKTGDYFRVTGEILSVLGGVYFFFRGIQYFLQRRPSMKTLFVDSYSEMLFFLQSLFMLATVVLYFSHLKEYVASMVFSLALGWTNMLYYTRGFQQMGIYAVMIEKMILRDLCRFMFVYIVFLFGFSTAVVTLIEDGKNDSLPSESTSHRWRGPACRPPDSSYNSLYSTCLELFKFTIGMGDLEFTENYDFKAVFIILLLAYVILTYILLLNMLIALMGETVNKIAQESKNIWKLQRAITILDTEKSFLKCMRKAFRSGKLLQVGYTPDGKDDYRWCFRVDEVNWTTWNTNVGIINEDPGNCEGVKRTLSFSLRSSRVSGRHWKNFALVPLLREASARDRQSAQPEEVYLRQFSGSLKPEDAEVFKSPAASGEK

[3] = biological target: T2, vanilloid receptor (VR1) (Homo sapiens, UniProt Q8NER1); experiment: FLIPR Ca2+ influx assay on CHO K1 cells transfected with the VR1 gene (pharmacological method II); conditions: table 4; capsaicin; read-out: Ki (human) Cap.
T2 construct: expressed in transfected cells; host or cells: CHO K1 cells (ECACC), stably transfected
T2 sequence (Q8NER1 whole entry): as above

SMILES | IC50 [2] [µM] | Ki [3] [µM] | other results
CCCCOc1nc(C(F)(F)F)ccc1CNC(=O)C(C)c1ccc(NS(C)(=O)=O)c(F)c1 (stereo not shown) [Example 19, N-((2-butoxy-6-(trifluoromethyl)pyridin-3-yl)methyl)-2-(3-fluoro-4-(methylsulfonamido)phenyl)propanamide] | – | – | Ki ([1]; Table 2, displacement of capsaicin (100 nM), Cheng-Prusoff, read-out: Ki (rat)): 0.001 µM
CC1CCN(c2nc(-c3ccc(F)cc3)ccc2CNC(=O)C(C)c2ccc(NS(C)(=O)=O)c(F)c2)CC1 (stereo not shown) [Example 184, 2-(3-fluoro-4-methylsulfonamido-phenyl)-N-[6′-(4-fluoro-phenyl)-4-methyl-3,4,5,6-tetrahydro-2H-[1,2′]bipyridinyl-3′-ylmethyl]-propionamide] | – | – | Ki ([1]; table 4, capsaicin, read-out: Ki (rat) Cap.): 0.077 µM
CCCN(CCC)c1nc(C(C)(C)C)ccc1CNC(=O)C(C)c1ccc(NS(C)(=O)=O)c(F)c1 (stereo not shown) [Example 297, N-(6-tert-butyl-2-dipropylamino-pyridin-3-ylmethyl)-2-(3-fluoro-4-methylsulfonamido-phenyl)-propionamide] | 0.179 | 0.0025 | –
CCCCC(CCCC)Oc1nc(C(F)(F)F)ccc1CNC(=O)C(C)c1ccc(NS(C)(=O)=O)c(F)c1 (stereo not shown) [Example 352, N-[2-(1-butyl-pentyloxy)-6-trifluoromethyl-pyridin-3-ylmethyl]-2-(3-fluoro-4-methylsulfonamido-phenyl)-propionamide] | – | 0.0005 | inhibition at 5 µM [2]: 34%; inhibition at 10 µM [2]: 61%
CC(C(=O)NCc1ccc(C(F)(F)F)nc1OC1CCC(C(F)(F)F)CC1)c1ccc(NS(C)(=O)=O)c(F)c1 (stereo not shown) [Example 339, 2-(3-fluoro-4-methylsulfonamido-phenyl)-N-[6-trifluoromethyl-2-(4-trifluoromethyl-cyclohexyloxy)-pyridin-3-ylmethyl]-propionamide] | 0.014 | 0.0003 | –
CCOc1nc(C(C)(C)C)ccc1CNC(=O)C(C)c1ccc(NS(C)(=O)=O)c(F)c1 (stereo not shown) [Example 373, N-((6-tert-butyl-2-ethoxypyridin-3-yl)methyl)-2-(3-fluoro-4-(methylsulfonamido)phenyl)propanamide] | 0.492 | 0.0148 | –
CC(C(=O)NCc1ccc(C(F)(F)F)nc1NCC1CCN(C(=O)OC(C)(C)C)CC1)c1ccc(NS(C)(=O)=O)c(F)c1 (stereo not shown) [Example 342, 4-[(3-{[2-(3-fluoro-4-methylsulfonamido-phenyl)-propionylamino]-methyl}-6-trifluoromethyl-pyridin-2-ylamino)-methyl]-piperidine-1-carbonic acid tert-butyl ester] | 1.14 | 0.0193 | –
CC(C)COc1nc(C(F)(F)F)ccc1CNC(=O)[C@H](C)c1ccc(NS(C)(=O)=O)c(F)c1 [Example 97, (R)-2-(3-fluoro-4-methylsulfonamido-phenyl)-N-(2-isobutoxy-6-trifluoromethyl-pyridin-3-ylmethyl)-propionamide] | 2.15 | 0.0445 | –
CC(C(=O)NCc1ccc(C(F)(F)F)nc1/C=C/C1CCCCC1)c1ccc(NS(C)(=O)=O)c(F)c1 (stereo not shown) [Example 346, N-[2-(2-cyclohexyl-vinyl)-6-trifluoromethyl-pyridin-3-ylmethyl]-2-(3-fluoro-4-methylsulfonamido-phenyl)-propionamide] | 0.066 | 0.0007 | –
COCCCOc1nc(C(F)(F)F)ccc1CNC(=O)C(C)c1ccc(NS(C)(=O)=O)c(F)c1 (stereo not shown) [Example 355, 2-(3-fluoro-4-methylsulfonamido-phenyl)-N-[2-(3-methoxy-propoxy)-6-trifluoromethyl-pyridin-3-ylmethyl]-propionamide] | 2.21 | 0.0153 | –
CCC/C=C/c1nc(C(F)(F)F)ccc1CNC(=O)C(C)c1ccc(NS(C)(=O)=O)c(F)c1 (stereo not shown) [Example 301, 2-(3-fluoro-4-methylsulfonamido-phenyl)-N-(2-pent-1-enyl-6-trifluoromethyl-pyridin-3-ylmethyl)-propionamide] | 0.102 | 0.0009 | –
CC(C)COc1cc(C(F)(F)F)ccc1CNC(=O)C(C)c1ccc(NS(C)(=O)=O)c(F)c1 (stereo not shown) [Example 98, 2-(3-fluoro-4-methylsulfonamido-phenyl)-N-(2-isobutoxy-4-trifluoromethyl-benzyl)-propionamide] | 0.041 | 0.0015 | –
CC(C(=O)NCc1ccc(C(F)(F)F)cc1N1CCN(C2CCCCC2)CC1)c1ccc(NS(C)(=O)=O)c(F)c1 (stereo not shown) [Example 319, N-[2-(4-cyclohexyl-piperazin-1-yl)-4-trifluoromethyl-benzyl]-2-(3-fluoro-4-methylsulfonamido-phenyl)-propionamide] | – | 0.0138 | inhibition at 5 µM [2]: 38%; inhibition at 10 µM [2]: 54%
CC(C(=O)NCc1ccc(C(F)(F)F)nc1C#Cc1ccccc1)c1ccc(NS(C)(=O)=O)c(F)c1 (stereo not shown) [Example 354, 2-(3-fluoro-4-methylsulfonamido-phenyl)-N-(2-phenylethynyl-6-trifluoromethyl-pyridin-3-ylmethyl)-propionamide] | 0.085 | 0.0008 | –
CC(C)CC(CC(C)C)Oc1nc(C(F)(F)F)ccc1CNC(=O)C(C)c1ccc(NS(C)(=O)=O)c(F)c1 (stereo not shown) [Example 337, 2-(3-fluoro-4-methylsulfonamido-phenyl)-N-[2-(1-isobutyl-3-methyl-butoxy)-6-trifluoromethyl-pyridin-3-ylmethyl]-propionamide] | – | 0.0007 | inhibition at 5 µM [2]: 6%; inhibition at 10 µM [2]: 30%
CCCN(CCC)c1nc(C(F)(F)F)ccc1CNC(=O)C(C)c1ccc(NS(C)(=O)=O)c(C)c1 (stereo not shown) [Example 331, N-(2-dipropylamino-6-trifluoromethyl-pyridin-3-ylmethyl)-2-(4-methylsulfonamido-3-methyl-phenyl)-propionamide] | – | 0.0007 | inhibition at 10 µM [2]: 31%
CC(C(=O)NCc1ccc(C(F)(F)F)nc1N1CC=C(c2ccccc2)CC1)c1ccc(NS(C)(=O)=O)c(F)c1 (stereo not shown) [Example 317, 2-(3-fluoro-4-methylsulfonamido-phenyl)-N-(4-phenyl-6′-trifluoromethyl-3,6-dihydro-2H-[1,2′]bipyridinyl-3′-ylmethyl)-propionamide] | 0.043 | 0.0017 | –
CC1CCN(c2nc(C(F)(F)F)ccc2CNC(=O)C(C)c2ccc(NS(=O)(=O)C(C)C)c(F)c2)CC1 (stereo not shown) [Example 309, 2-[3-fluoro-4-(propan-2-sulfonylamino)-phenyl]-N-(4-methyl-6′-trifluoromethyl-3,4,5,6-tetrahydro-2H-[1,2′]bipyridinyl-3′-ylmethyl)-propionamide] | – | 0.0087 | inhibition at 5 µM [2]: 20%
CC(=O)C1(c2ccccc2)CCN(c2nc(C(F)(F)F)ccc2CNC(=O)C(C)c2ccc(NS(C)(=O)=O)c(F)c2)CC1 (stereo not shown) [Example 304, N-(4-acetyl-4-phenyl-6′-trifluoromethyl-3,4,5,6-tetrahydro-2H-[1,2′]bipyridinyl-3′-ylmethyl)-2-(3-fluoro-4-methylsulfonamido-phenyl)-propionamide] | 0.0354 | 0.00071 | –
CC(C(=O)NCc1ccc(C(F)(F)F)nc1C1=CCCCC1)c1ccc(NS(C)(=O)=O)c(F)c1 (stereo not shown) [Example 334, N-(2-cyclohex-1-enyl-6-trifluoromethyl-pyridin-3-ylmethyl)-2-(3-fluoro-4-methylsulfonamido-phenyl)-propionamide] | 0.099 | 0.0007 | –
CC(C)=Cc1nc(C(F)(F)F)ccc1CNC(=O)C(C)c1ccc(NS(C)(=O)=O)c(F)c1 (stereo not shown) [Example 273, 2-(3-fluoro-4-methylsulfonamido-phenyl)-N-[2-(2-methyl-propenyl)-6-trifluoromethyl-pyridin-3-ylmethyl]-propionamide] | 1.61 | 0.0115 | –
